Experimental data from patent publication US20170304409A1, “COMPOSITIONS USEFUL FOR THE PREVENTION AND/OR TREATMENT OF INFECTIONS AND INFLAMMATIONS” (ISTITUTO PROFILATTICO E FARMACEUTICO CANDIOLI & C. SPA in …, priority 2014, published 2017).
Values after ≈ are worked out from the molar mass of the structure shown.

Tested on: S. aureus ATCC 29213
Test: In vitro susceptibility test, antimicrobial dilution method (CLSI), MIC
Assay type: cell-based
Conditions: Staphylococcus aureus, ATCC29213, read-out: MIC (Minimum Inhibitory Concentration)
Protocol: For all the tests performed, there was a positive control of antifungal activity using fluconazole (for Malassezia) and ceftriaxone (for the bacterial strains) and a negative control (absence of the compounds) wherein correct microbial growth was evaluated.

MIC: 3000 µg/mL (≈ 4.8 mM)
SMILES: C[C@@H]1O[C@@H](O[C@@H]2[C@@H](O)[C@H](OCCc3ccc(O)c(O)c3)O[C@H](CO)[C@H]2OC(=O)/C=C/c2ccc(O)c(O)c2)[C@H](O)[C@H](O)[C@H]1O [Verbascoside, verbascoside]
